Assay results taken from patent US10392391B2 (Vertex Pharmaceuticals Incorporated, priority 2012, dated 2019).
pKi: −log10 of the molar value. Where two headings read alike, the source gives them in different places.

Target: ATR kinase (full-length ATR) (Homo sapiens (Human), UniProt Q13535)
Assay: ATR inhibition assay (radioactive-phosphate incorporation)
Format: biochemical
In short: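 Radiometric 33P incorporation by 5 nM full-length ATR into 800 μM target peptide with 10 μM [γ-33P]ATP, in 50 mM Tris/HCl pH 7.5, 10 mM MgCl2, 1 mM DTT, 7% DMSO, 25° C. Compound pre-incubated 10 minutes; reaction stopped after 24 hours, captured on phosphocellulose. Ki(app) from non-linear regression of initial rates.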

[1] = Ki(app), 5 nM full-length ATR, 10 μM ATP, 25° C.

Sequence of ATR kinase (full-length ATR) (Q13535 whole entry): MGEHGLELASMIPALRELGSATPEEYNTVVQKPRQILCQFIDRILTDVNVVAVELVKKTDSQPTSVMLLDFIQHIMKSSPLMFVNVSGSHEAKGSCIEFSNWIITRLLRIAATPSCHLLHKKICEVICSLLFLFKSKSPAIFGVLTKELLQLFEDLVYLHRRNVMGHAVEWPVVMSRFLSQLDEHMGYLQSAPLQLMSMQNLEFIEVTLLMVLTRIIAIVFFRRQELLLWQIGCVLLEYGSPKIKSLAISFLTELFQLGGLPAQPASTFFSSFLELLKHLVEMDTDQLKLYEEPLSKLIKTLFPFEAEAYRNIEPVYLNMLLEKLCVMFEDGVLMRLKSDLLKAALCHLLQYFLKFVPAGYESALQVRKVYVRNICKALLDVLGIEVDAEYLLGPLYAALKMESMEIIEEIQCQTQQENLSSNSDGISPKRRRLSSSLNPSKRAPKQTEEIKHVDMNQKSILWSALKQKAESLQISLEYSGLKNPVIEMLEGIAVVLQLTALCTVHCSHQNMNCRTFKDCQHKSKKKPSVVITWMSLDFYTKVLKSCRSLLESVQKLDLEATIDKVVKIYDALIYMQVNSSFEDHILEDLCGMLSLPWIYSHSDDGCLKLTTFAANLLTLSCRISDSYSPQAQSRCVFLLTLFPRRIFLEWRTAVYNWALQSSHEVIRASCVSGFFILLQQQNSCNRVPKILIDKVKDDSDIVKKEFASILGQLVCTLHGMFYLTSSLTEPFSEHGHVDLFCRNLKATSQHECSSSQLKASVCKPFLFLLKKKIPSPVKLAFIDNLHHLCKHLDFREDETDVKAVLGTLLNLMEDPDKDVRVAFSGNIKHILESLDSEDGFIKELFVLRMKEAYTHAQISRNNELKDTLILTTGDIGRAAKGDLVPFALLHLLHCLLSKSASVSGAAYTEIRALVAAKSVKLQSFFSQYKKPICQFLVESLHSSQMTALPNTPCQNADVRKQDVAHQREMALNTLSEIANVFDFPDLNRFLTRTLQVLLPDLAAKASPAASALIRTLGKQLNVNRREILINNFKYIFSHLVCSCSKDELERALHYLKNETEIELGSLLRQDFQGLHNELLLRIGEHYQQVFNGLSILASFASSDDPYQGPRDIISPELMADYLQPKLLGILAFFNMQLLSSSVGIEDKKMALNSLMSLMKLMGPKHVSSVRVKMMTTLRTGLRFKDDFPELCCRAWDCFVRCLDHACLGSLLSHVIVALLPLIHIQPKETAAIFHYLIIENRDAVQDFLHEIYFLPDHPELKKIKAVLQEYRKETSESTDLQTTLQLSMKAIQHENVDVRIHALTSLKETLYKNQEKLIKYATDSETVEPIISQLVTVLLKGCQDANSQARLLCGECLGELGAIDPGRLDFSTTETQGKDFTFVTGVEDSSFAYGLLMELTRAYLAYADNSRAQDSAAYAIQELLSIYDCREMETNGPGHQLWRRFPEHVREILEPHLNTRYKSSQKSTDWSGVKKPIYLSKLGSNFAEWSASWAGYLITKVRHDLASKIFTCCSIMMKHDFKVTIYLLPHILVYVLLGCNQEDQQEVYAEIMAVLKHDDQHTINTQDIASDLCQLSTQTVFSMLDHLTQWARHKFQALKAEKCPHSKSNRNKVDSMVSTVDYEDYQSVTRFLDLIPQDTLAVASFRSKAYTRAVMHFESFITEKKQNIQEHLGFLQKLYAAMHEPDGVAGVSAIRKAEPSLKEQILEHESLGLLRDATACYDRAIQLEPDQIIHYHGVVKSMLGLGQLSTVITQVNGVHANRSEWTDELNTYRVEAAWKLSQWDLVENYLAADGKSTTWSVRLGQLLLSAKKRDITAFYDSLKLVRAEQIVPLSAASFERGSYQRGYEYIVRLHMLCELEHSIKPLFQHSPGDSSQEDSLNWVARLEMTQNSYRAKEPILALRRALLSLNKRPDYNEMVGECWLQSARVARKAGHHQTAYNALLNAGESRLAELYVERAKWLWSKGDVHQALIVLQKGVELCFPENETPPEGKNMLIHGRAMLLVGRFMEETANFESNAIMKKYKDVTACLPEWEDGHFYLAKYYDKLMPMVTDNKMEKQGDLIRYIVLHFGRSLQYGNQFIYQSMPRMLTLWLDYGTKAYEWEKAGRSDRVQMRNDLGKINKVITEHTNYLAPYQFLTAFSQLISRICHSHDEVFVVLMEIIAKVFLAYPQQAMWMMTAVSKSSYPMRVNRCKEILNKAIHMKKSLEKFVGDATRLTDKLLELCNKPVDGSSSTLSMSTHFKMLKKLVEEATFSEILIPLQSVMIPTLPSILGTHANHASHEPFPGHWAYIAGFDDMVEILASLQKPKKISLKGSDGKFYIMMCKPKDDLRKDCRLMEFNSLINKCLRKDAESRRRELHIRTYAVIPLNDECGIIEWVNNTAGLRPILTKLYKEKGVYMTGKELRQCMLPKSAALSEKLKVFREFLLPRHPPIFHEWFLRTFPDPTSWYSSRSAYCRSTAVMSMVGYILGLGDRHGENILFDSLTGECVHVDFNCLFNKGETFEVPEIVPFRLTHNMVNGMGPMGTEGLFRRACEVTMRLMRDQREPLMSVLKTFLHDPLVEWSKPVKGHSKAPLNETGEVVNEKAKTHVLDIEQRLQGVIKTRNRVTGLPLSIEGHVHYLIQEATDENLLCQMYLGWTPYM

SMILES | pKi [1] | pKi
Nc1nn2cc(F)cnc2c1C(=O)Nc1cnccc1N1CCN([C@@H]2CCOC2)CC1 [I-N-10, (R)-2-amino-6-fluoro-N-(4-(4-(tetrahydrofuran-3-yl)piperazin-1-yl)pyridin-3-yl)pyrazolo[1,5-a]pyrimidine-3-carboxamide] | 6.00 to 8.00 | –
Nc1nn2cc(F)cnc2c1C(=O)Nc1cnccc1-c1ccnnc1 [I-C-26, 2-amino-6-fluoro-N-(4-(pyridazin-4-yl)pyridin-3-yl)pyrazolo[1,5-a]pyrimidine-3-carboxamide] | 6.00 to 8.00 | –
Nc1nn2cc(F)cnc2c1C(=O)Nc1cncc(F)c1N1CCC(C(=O)N2CC(N3CCCC3)C2)CC1 [I-G-43, 2-amino-6-fluoro-N-(5-fluoro-4-(4-(3-(pyrrolidin-1-yl)azetidine-1-carbonyl)piperidin-1-yl)pyridin-3-yl)pyrazolo[1,5-a]pyrimidine-3-carboxamide] | 6.00 to 8.00 | –
CCN1CCN(C(=O)C2CCN(c3c(F)cncc3NC(=O)c3c(N)nn4cc(F)cnc34)CC2)CC1 [I-G-9, 2-amino-N-(4-(4-(4-ethylpiperazine-1-carbonyl)piperidin-1-yl)-5-fluoropyridin-3-yl)-6-fluoropyrazolo[1,5-a]pyrimidine-3-carboxamide] | 6.00 to 8.00 | –
Nc1nn2cc(Cl)cnc2c1C(=O)Nc1cnccc1N1CCn2ccnc2C1 [I-N-44, 2-amino-6-chloro-N-(4-(5,6-dihydroimidazo[1,2-a]pyrazin-7(8H)-yl)pyridin-3-yl)pyrazolo[1,5-a]pyrimidine-3-carboxamide] | 6.00 to 8.00 | –
CN1CCC(c2ccncc2NC(=O)c2c(N)nn3cc(C(C)(C)C#N)cnc23)CC1 [I-C-23, 2-amino-6-(2-cyanopropan-2-yl)-N-(4-(1-methylpiperidin-4-yl)pyridin-3-yl)pyrazolo[1,5-a]pyrimidine-3-carboxamide] | – | 5.30 to 6.00
CN(C)CCN(C)C(=O)C1CCN(c2c(F)cncc2NC(=O)c2c(N)nn3cc(F)cnc23)CC1 [I-G-31, 2-amino-N-(4-(4-((2-(dimethylamino)ethyl)(methyl)carbamoyl)piperidin-1-yl)-5-fluoropyridin-3-yl)-6-fluoropyrazolo[1,5-a]pyrimidine-3-carboxamide] | 6.00 to 8.00 | –
CC1(O)CN(C(=O)C2CCN(c3c(F)cncc3NC(=O)c3c(N)nn4cc(F)cnc34)CC2)C1 [I-G-63, 2-amino-6-fluoro-N-(5-fluoro-4-(4-(3-hydroxy-3-methylazetidine-1-carbonyl)piperidin-1-yl)pyridin-3-yl)pyrazolo[1,5-a]pyrimidine-3-carboxamide] | 6.00 to 8.00 | –

Next, values leading:

pKi [1] | pKi | SMILES
> 8.00 | – | N#CCc1cnc2c(C(=O)Nc3cnccc3O[C@@H]3CCOC3)c(N)nn2c1 [I-O-31, (R)-2-amino-6-(cyanomethyl)-N-(4-((tetrahydrofuran-3-yl)oxy)pyridin-3-yl)pyrazolo[1,5-a]pyrimidine-3-carboxamide]
– | 5.30 to 6.00 | Cn1ccc2cncc(NC(=O)c3c(N)nn4cc(F)cnc34)c21 [I-N-259, 2-amino-6-fluoro-N-(1-methyl-1H-pyrrolo[3,2-c]pyridin-7-yl)pyrazolo[1,5-a]pyrimidine-3-carboxamide]
> 8.00 | – | N#CCc1cnc2c(C(=O)Nc3cnccc3OC3CCCNC3)c(N)nn2c1 (racemic) [I-O-2, (R,S)-2-amino-6-(cyanomethyl)-N-(4-(piperidin-3-yloxy)pyridin-3-yl)pyrazolo[1,5-a]pyrimidine-3-carboxamide]
6.00 to 8.00 | – | COC1(CN(C)C)CCN(c2ccncc2NC(=O)c2c(N)nn3cc(Cl)cnc23)CC1 [I-N-46, 2-amino-6-chloro-N-(4-(4-((dimethylamino)methyl)-4-methoxypiperidin-1-yl)pyridin-3-yl)pyrazolo[1,5-a]pyrimidine-3-carboxamide]
6.00 to 8.00 | – | CS(=O)(=O)N1CCN(c2ccncc2NC(=O)c2c(N)nn3cc(F)cnc23)CC1 [I-N-178, 2-amino-6-fluoro-N-(4-(4-(methylsulfonyl)piperazin-1-yl)pyridin-3-yl)pyrazolo[1,5-a]pyrimidine-3-carboxamide]
